Measurements: article PMC12118597 (Science Advances, 2025)
“And” between values parts separate entries of the source, which are not always exact repeats. Identical values can stand only once. Like-named read-outs stand apart in the source and are kept apart here.

How the values were obtained:
[1] = biological target: T1, SARS-CoV-2 NSP3 macrodomain (Mac1) (Severe acute respiratory syndrome coronavirus 2, UniProt P0DTD1); experiment: biochemical; assay type: binding
[2] = biological target: T1, SARS-CoV-2 NSP3 macrodomain (Mac1); assay type: binding; conditions: for Number of isomers bound: ligand modeling, Mac1 crystal soak; for X-ray crystal structure: TRUE = crystal structure with ligand obtained; for 2*(1-BDC) (%): occupancy estimate from PanDDA; for Binding site: site of ligand in X-ray crystal structure
[3] = Single dose, concentration 200 μM
[4] = compound at 200 μM, mean of three to four technical replicates, read-out: % competition at 200 μM (preliminary HTRF screen)
[5] = crystal soak 10 mM, TFA/DMSO background map
[6] = SARS CoV-2 macrodomain HTRF assay, single dose concentration 200 μM, read-out: Average % competition
[7] = stereoisomer(s) modeled as bound, residues 201/202/203
[8] = SARS CoV-2 macrodomain HTRF assay, single dose concentration 200 μM
[9] = HTRF binding curve, SARS-CoV-2 Mac1
[10] = SARS CoV-2 macrodomain HTRF assay
[11] = SARS CoV-2 macrodomain HTRF assay, dose-response
[12] = read-out: IC50 (confirmatory HTRF dose-response screen)
[13] = crystal soak 10 mM, DMSO background map
[14] = SARS CoV-2 macrodomain HTRF assay, dose-response, read-out: IC50
[15] = stereoisomer(s)/conformations of the soaked ligand modeled in the Mac1 crystal structure

| Structure (SMILES) | Average % competition [1, 3] | inhibition at 200 µM [1, 4] | PanDDA run, TFA/DMSO background map: 1-BDC [2, 5] | PanDDA run, TFA/DMSO background map: Hit [2, 5] | Number of isomers bound [2] | Ligand efficiency (binding enery per heavy atom) [1, 10] | further results |
| --- | --- | --- | --- | --- | --- | --- | --- |
| OCC(CC(O)c1ccccc1)Nc1ncnc2[nH]ccc12 (stereo not shown) [AVI-3642] | <10% | < 10% | 0.17 | TRUE | 1 | – | – |
| CC1(C)CCC(CO)N(c2ncnc3[nH]ccc23)C1 (stereo not shown) [AVI-3726] | – | 76% | – | – | 2 | – | inhibition at 200 µM [1, 6]: 76%; Isomers modeled [2, 7]: R,R,S |
| Cc1nn(C)cc1C1CC[C@H](CO)N1c1ncnc2[nH]ccc12 (stereo partly shown) [AVI-3733] | – | 44% | – | – | 1 | – | inhibition at 200 µM [1, 6]: 44% |
| O[C@@H]1CN(c2ncnc3[nH]ccc23)C[C@H]1F [AVI-616] | – | 15% | – | – | 1 | – | Average % competition [1, 8]: 15% |
| Cc1c[nH]c2ncnc(NCC(C)(C)O)c12 [AVI-3758, 2-methyl-1-((5-methyl-7H-pyrrolo[2,3-d]pyrimidin-4-yl)amino)propan-2-ol] | – | – | – | – | – | 0.40 | Hill slope [1, 9]: 1.0; Ki [1, 10]: 26 µM; Hill slope [1, 11]: 1.0; IC50 [1, 12]: 28 µM; 1-BDC ([2]; PanDDA background density correction, 1-BDC): 0.14; X-ray crystal structure [2]: TRUE; Hit (PanDDA run, DMSO background map) [2, 13]: TRUE; 1-BDC (PanDDA run, DMSO background map) ([2]; crystal soak 10 mM, DMSO background map, event 1): 0.19 and 0.14; Hit (PanDDA run, overall) ([2]; crystal soak, 10 mM soak concentration, P43 crystal form): TRUE; Refined ligand occupancy (%) ([2]; crystallographic refinement): 50%; 2*(1-BDC) (%) [2]: 28%; Binding site [2]: Adenosine |
| OCC(Cc1nccs1)Nc1ncnc2[nH]ccc12 (stereo not shown) [AVI-3673] | 38% | 38% | 0.15 | TRUE | 1 | – | – |
| OCC(Nc1ncnc2[nH]ccc12)C1CCC1 (stereo not shown) [AVI-3638] | 77% | 77% | 0.1 | TRUE | 1 | – | – |
| OCC(CN1CCCCC1)Nc1ncnc2[nH]ccc12 (stereo not shown) [AVI-3677] | <10% | < 10% | 0.18 | TRUE | 1 | – | – |
| Cc1ccc(CC(CO)Nc2ncnc3[nH]ccc23)cc1C (stereo not shown) [AVI-3684] | <10% | < 10% | – | – | 2 | – | Isomers modeled [2, 7]: R,S |
| CC(C)(O)C1C2CCCCC2CN1c1ncnc2[nH]ccc12 (stereo not shown) [AVI-4127] | – | – | – | – | – | 0.25 | Ki [1, 10]: 120 µM; IC50 [1, 14]: 130 µM; Isomers modeled [2, 15]: SSR,SRS |
| Cc1c[nH]c2ncnc(NCC3(O)CCC3)c12 [AVI-3571, 1-(((5-methyl-7H-pyrrolo[2,3-d]pyrimidin-4-yl)amino)methyl)cyclobutan-1-ol] | – | – | – | – | 1 | 0.39 | Hill slope [1, 9]: 1.0; Ki [1, 10]: 14 µM; Hill slope [1, 11]: 1.0; IC50 [1, 14]: 15 µM; Occupancy difference (refined_occupancy - 2*(1-BDC)) [2]: 0; 1-BDC ([2]; PanDDA background density correction factor): 0.15; X-ray crystal structure [2]: TRUE; PanDDA run, overall: Hit ([2]; crystal soak 10 mM, P43 crystal form): TRUE; PanDDA run, DMSO background map: 1-BDC [2, 13]: 0.15 and 0.2; PanDDA run, DMSO background map: Hit [2, 13]: TRUE; Total number of conformations ([2]; ligand conformations modeled in the crystal structure): 2; 2*(1-BDC) (%) [2]: 30%; Refined ligand occupancy (%) ([2]; refined crystallographic occupancy): 30%; Binding site [2]: Adenosine |
| OCC(CC1OCCO1)Nc1ncnc2[nH]ccc12 (stereo not shown) [AVI-3658] | 11% | 11% | – | – | 1 | – | – |
| O=C(O)C(F)(F)F.OC[C@@H]1CC2(CC2)CN1c1ncnc2[nH]ccc12 [AVI-3710] | – | 57% | 0.23 | TRUE | 1 | – | inhibition at 200 µM [1, 6]: 57%; Isomers modeled [2, 7]: S,S |
| OCC(CC1CCC1)Nc1ncnc2[nH]ccc12 (stereo not shown) [AVI-3641] | 32% | 32% | 0.11 | TRUE | 1 | – | – |
| OCC(Nc1ncnc2[nH]ccc12)c1ccco1 (stereo not shown) [AVI-3659] | 55% | 55% | 0.08 | TRUE | 1 | – | – |
| OCC(Cc1ccccn1)Nc1ncnc2[nH]ccc12 (stereo not shown) [AVI-3696] | 34% | 34% | – | – | 2 | – | Isomers modeled [2, 7]: R,S |
| O=C(O)C(F)(F)F.OC1([C@H]2CCCN2c2ncnc3[nH]ccc23)Cc2ccccc2C1 [AVI-3731] | – | – | 0.14 | TRUE | 1 | 0.31 | Ki [1, 10]: 3.4 µM; IC50 [1, 12]: 3.7 µM |
| O=C(O)C(F)(F)F.OCC1(Nc2ncnc3[nH]ccc23)CC1 [AVI-3688] | 72% | 72% | 0.17 | TRUE | 1 | – | – |
| OCC1CCCN1c1ncnc2[nH]ccc12 (stereo not shown) [AVI-3685] | – | 48% | – | – | 1 | – | fold decrease in affinity relative to AVI-607 ([1]; HTRF): > 20 fold; inhibition at 200 µM [1, 6]: 47% |

| Structure (SMILES) | Average % competition [1, 3] | inhibition at 200 µM [1, 4] | PanDDA run, TFA/DMSO background map: 1-BDC [2, 5] | PanDDA run, TFA/DMSO background map: Hit [2, 5] | Number of isomers bound [2] | Ligand efficiency (binding enery per heavy atom) [1, 10] | further results |
| --- | --- | --- | --- | --- | --- | --- | --- |
| CCC(O)[C@H]1CCCN1c1ncnc2[nH]ccc12 (stereo partly shown) [AVI-3666] | – | – | – | – | 1 | 0.34 | – |
| OCC1C2CCC(C2)N1c1ncnc2[nH]ccc12 (stereo not shown) [AVI-3713] | – | – | – | – | 1 | 0.35 | Ki [1, 10]: 25 µM; IC50 [1, 14]: 27 µM; Isomers modeled [2, 7]: SSR |
| OCC(Nc1ncnc2[nH]ccc12)C1CCc2ccccc21 (stereo not shown) [AVI-3693] | 78% | 78% | – | – | 2 | – | Isomers modeled [2, 7]: RR,SR |
| OC1CCC(O)(CNc2ncnc3[nH]ccc23)CC1 (stereo not shown) [AVI-6220] | – | – | – | – | – | 0.26 | Ki [1, 10]: 240 µM; IC50 [1, 14]: 260 µM; Isomers modeled [2, 15]: rr,rr |
| NC(=O)C1(O)CCN(c2ncnc3[nH]ccc23)C1 (stereo not shown) [AVI-611] | – | 30% | – | – | 1 | – | Average % competition [1, 8]: 30%; Isomers modeled [2, 7]: S,S |
| OC[C@@H]1C[C@H](O)CN1c1ncnc2[nH]ccc12 [AVI-610] | – | – | – | – | 1 | 0.31 | Ki [1, 10]: 150 µM; IC50 [1, 14]: 160 µM |
| CCC(C)(CO)Nc1ncnc2[nH]ccc12 (stereo not shown) [AVI-3697] | – | – | – | – | 1 | 0.39 | Ki [1, 10]: 34 µM; IC50 [1, 14]: 36 µM |
| OCC(CC1CCCCC1)Nc1ncnc2[nH]ccc12 (stereo not shown) [AVI-3690] | 66% | 66% | – | – | 1 | – | – |
| Cc1ccccc1CC(CO)Nc1ncnc2[nH]ccc12 (stereo not shown) [AVI-3674] | 32% | 32% | 0.15 | TRUE | 1 | – | – |
| OC1CCN(c2ncnc3[nH]ccc23)C1 (stereo not shown) [AVI-3661] | – | 11% | 0.12 | TRUE | – | – | inhibition at 200 µM [1, 6]: 11% |
| OCC(Nc1ncnc2[nH]ccc12)C1CC1 (stereo not shown) [AVI-3651] | – | – | 0.16 | TRUE | 1 | 0.38 | Ki [1, 10]: 45 µM; IC50 [1, 14]: 48 µM |
| O=C(O)C(F)(F)F.OC[C@H](Cc1ccc(O)cc1)Nc1ncnc2[nH]ccc12 [AVI-4066] | – | – | – | – | – | 0.21 | Ki [1, 10]: 670 µM; IC50 [1, 14]: 720 µM; Hit (PanDDA run, TFA/DMSO background map) [2, 5]: TRUE; 1-BDC (PanDDA run, TFA/DMSO background map) ([2]; crystal soak 10 mM, TFA/DMSO background map, event 1): 0.19 and 0.29 and 0.3 |
| Cc1c[nH]c2ncnc(NCC3(O)CCC(C)CC3)c12 (stereo not shown) [AVI-4331] | – | – | – | – | – | 0.26 | IC50 [1, 14]: 210 µM; Isomers modeled [2, 15]: rr |
| O=C(O)C(F)(F)F.OCC1(Nc2ncnc3[nH]ccc23)CCCC1 [AVI-3692] | – | – | 0.11 | TRUE | 1 | 0.35 | Ki [1, 10]: 46 µM; IC50 [1, 14]: 49 µM |
| OCC(COCc1ccccc1)Nc1ncnc2[nH]ccc12 (stereo not shown) [AVI-3709] | 29% | 29% | 0.16 | TRUE | 2 | – | Isomers modeled [2, 7]: S,R |
| CCCC(CO)Nc1ncnc2[nH]ccc12 (stereo not shown) [AVI-3643] | – | 63% | 0.14 | TRUE | 1 | – | inhibition at 200 µM ([1]; Single dose, concentration 200 μM, read-out: Average % competition): 63% |
| CC(O)C(C)Nc1ncnc2[nH]ccc12 (stereo not shown) [AVI-5158] | 32% | 32% | – | – | – | – | Isomers modeled [2, 15]: RS,RR |
| CO[C@@H]1C[C@H](CO)N(c2ncnc3[nH]ccc23)C1 [AVI-3656] | – | 41% | – | – | 1 | – | inhibition at 200 µM [1, 6]: 41% |
